Data taken from patent US6706663B2, “Herbicidal 3-heterocyclic substituted benzisothiazole and benzisoxazole compounds” (Wyeth, priority 2000, dated 2004).

Assays:
[1] = test system: ABUTH (Abutilon theophrasti); experiment: Postemergence herbicidal evaluation; assay type: in vivo, Medic.
In short: (§1)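 Seedlings grown for about two weeks were sprayed postemergence and then kept under standard greenhouse care. Injury was rated visually 4–5 weeks after treatment on a 0–9 scale against untreated controls, and ratings from repeat tests were averaged.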

[2] = test system: GALAP (Galium aparine); experiment: Postemergence herbicidal evaluation; assay type: in vivo
In short: as §1

[3] = test system: IPOHE (Ipomoea hederacea); experiment: Postemergence herbicidal evaluation; assay type: in vivo, (L.) Jacq.
In short: as §1

[4] = test system: SETVI (Setaria viridis); experiment: Postemergence herbicidal evaluation; assay type: in vivo, (L.) Beau
In short: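 Ratings use a 0-9 visual scale covering stand, vigor, malformation, size, chlorosis and appearance versus a control, scored 4-5 weeks post-spray. Roughly two-week-old seedlings received about 0.0040-1.000 kg/ha active, applied in 50/50 acetone/water with 0.5% TWEEN 20. Multiple tests per compound were averaged.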

[5] = test system: GLXMAW (Soybean, Williams); experiment: Postemergence herbicidal evaluation; assay type: in vivo, Glycine max, (L.) Merr. cv Williams
In short: as §1

[6] = test system: TRZAWR (Wheat, Winter, cv Riband); experiment: Postemergence herbicidal evaluation; assay type: in vivo, Triticum aestivum
In short: as §1

[7] = test system: ABUTH (Abutilon theophrasti); experiment: Preemergence herbicidal evaluation; assay type: in vivo, Medic.; conditions: preemergence, rated 4-5 weeks after treatment
[8] = test system: AMBEL (Ambrosia artemisifolia); experiment: Preemergence herbicidal evaluation; assay type: in vivo, L.; conditions: preemergence, rated 4-5 weeks after treatment
In short: (§2)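 Greenhouse preemergence test: freshly planted cups were sprayed once with an aqueous acetone solution of compound. Injury was judged visually on a 0–9 scale relative to a control, four to five weeks later.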

[9] = test system: CASOB (Cassia obtusifolia); experiment: Preemergence herbicidal evaluation; assay type: in vivo, L.; conditions: preemergence, rated 4-5 weeks after treatment
In short: as §2

[10] = test system: CHEAL (Chenopodium album); experiment: Preemergence herbicidal evaluation; assay type: in vivo, L.; conditions: preemergence, rated 4-5 weeks after treatment
In short: as §2

[11] = test system: GALAP (Galium aparine); experiment: Preemergence herbicidal evaluation; assay type: in vivo; conditions: preemergence, rated 4-5 weeks after treatment
In short: as §2

[12] = test system: ECHCG (Echinochloa crus-galli); experiment: Preemergence herbicidal evaluation; assay type: in vivo, (L.) Beau; conditions: preemergence, rated 4-5 weeks after treatment
In short: as §2

[13] = test system: SETVI (Setaria viridis); experiment: Preemergence herbicidal evaluation; assay type: in vivo, (L.) Beau; conditions: preemergence, rated 4-5 weeks after treatment
In short: as §2

[14] = test system: ZEAMX (Corn, Field); experiment: Preemergence herbicidal evaluation; assay type: in vivo, Zea mays, L.; conditions: preemergence, rated 4-5 weeks after treatment
[15] = test system: CYPSE (Cyperus serotinus); experiment: Flooded paddy, preemergence weed control; assay type: in vivo, Rottb.; conditions: rated 3-4 weeks after treatment, 0-9 rating scale
In short: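 Seeds or propagules were planted 0.5 cm deep in silt loam and flooded to 1.5–3 cm. Compounds in 50/50 v/v aqueous/acetone were pipetted into the flood water at about 0.0080 to 0.1250 kg/ha. After 3–4 weeks in the greenhouse, effect was rated visually on a 0–9 scale versus untreated control.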

[16] = test system: MOOVA (Monochoria vaginalis); experiment: Flooded paddy, preemergence weed control; assay type: in vivo, Presl.; conditions: rated 3-4 weeks after treatment, 0-9 rating scale
In short: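 Under paddy conditions, seeds or vegetative propagules go into the top 0.5 cm of silt loam; the soil is then flooded to 1.5–3 cm and kept so. Treated pots stay in a greenhouse; response is rated 0-9 visually versus control.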

[17] = test system: ORYSAT (Rice, Tebonnet); experiment: Flooded paddy, post-transplant rice tolerance; assay type: in vivo, Oryza sativa, (L.) Tebonnet; conditions: flooded paddy, post-transplant rice, rated 3-4 weeks after treatment, 0-9 rating scale
In short: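 Ten-day-old seedlings, 2/pot, silt loam; flood kept 1.5–3 cm over soil; herbicide applied post-transplant; greenhouse; score 0–9 visual vs control.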

For `COc1ccsc1-c1nsc2ccc(-n3c(=O)cc(C(F)(F)F)n(C)c3=O)cc12` [Compound 10, 3-[3-(3-methoxy-2-thienyl)-1,2-benzisothiazol-5-yl]-1-methyl-6-(trifluoromethyl)uracil], the “Postemergence herbicidal rating, ABUTH” value ([1]; rate 0.0320 kg/ha) was 8.0, the “Postemergence herbicidal rating, ABUTH” value ([1]; rate 0.0620 kg/ha) was 8.0 and the “Postemergence herbicidal rating, ABUTH” value ([1]; rate 0.1250 kg/ha) was 9.0. The “Postemergence herbicidal rating, GALAP” value ([2]; rate 0.0320 kg/ha) was 1.0, the “Postemergence herbicidal rating, GALAP” value ([2]; rate 0.0620 kg/ha) was 1.0 and the “Postemergence herbicidal rating, GALAP” value ([2]; rate 0.1250 kg/ha) was 9.0. The “Postemergence herbicidal rating, IPOHE” value ([3]; rate 0.0320 kg/ha) was 2.0, the “Postemergence herbicidal rating, IPOHE” value ([3]; rate 0.0620 kg/ha) was 2.0 and the “Postemergence herbicidal rating, IPOHE” value ([3]; rate 0.1250 kg/ha) was 7.0. The “Postemergence herbicidal rating, SETVI” value ([4]; rate 0.0320 kg/ha) was 0.0, the “Postemergence herbicidal rating, SETVI” value ([4]; rate 0.0620 kg/ha) was 0.5 and the “Postemergence herbicidal rating, SETVI” value ([4]; rate 0.1250 kg/ha) was 0.0. For the same molecule, the “Postemergence herbicidal rating, GLXMAW” value ([5]; rate 0.0320 kg/ha) was 4.8, the “Postemergence herbicidal rating, GLXMAW” value ([5]; rate 0.0620 kg/ha) was 5.0 and the “Postemergence herbicidal rating, GLXMAW” value ([5]; rate 0.1250 kg/ha) was 6.0. For the same molecule, the “Postemergence herbicidal rating, TRZAWR” value ([6]; rate 0.0320 kg/ha) was 2.5, the “Postemergence herbicidal rating, TRZAWR” value ([6]; rate 0.0620 kg/ha) was 2.8 and the “Postemergence herbicidal rating, TRZAWR” value ([6]; rate 0.1250 kg/ha) was 4.0. The “ABUTH preemergence herbicidal rating” value ([7]; Rate 0.0620 kg/ha) was 7.0, the “ABUTH preemergence herbicidal rating” value ([7]; Rate 0.1250 kg/ha) was 9.0 and the “ABUTH preemergence herbicidal rating” value ([7]; Rate 0.2500 kg/ha) was 9.0. For the same molecule, the “AMBEL preemergence herbicidal rating” value ([8]; Rate 0.0620 kg/ha) was 4.0, the “AMBEL preemergence herbicidal rating” value ([8]; Rate 0.1250 kg/ha) was 6.0 and the “AMBEL preemergence herbicidal rating” value ([8]; Rate 0.2500 kg/ha) was 7.0. For the same molecule, the “CASOB preemergence herbicidal rating” value ([9]; Rate 0.0620 kg/ha) was 0.5, the “CASOB preemergence herbicidal rating” value ([9]; Rate 0.1250 kg/ha) was 1.0 and the “CASOB preemergence herbicidal rating” value ([9]; Rate 0.2500 kg/ha) was 1.0. The “CHEAL preemergence herbicidal rating” value ([10]; Rate 0.0620 kg/ha) was 8.0, the “CHEAL preemergence herbicidal rating” value ([10]; Rate 0.1250 kg/ha) was 9.0 and the “CHEAL preemergence herbicidal rating” value ([10]; Rate 0.2500 kg/ha) was 9.0. The “GALAP preemergence herbicidal rating” value ([11]; Rate 0.0620 kg/ha) was 5.0, the “GALAP preemergence herbicidal rating” value ([11]; Rate 0.1250 kg/ha) was 8.5 and the “GALAP preemergence herbicidal rating” value ([11]; Rate 0.2500 kg/ha) was 8.0. The “ECHCG preemergence herbicidal rating” value ([12]; Rate 0.0620 kg/ha) was 0.5, the “ECHCG preemergence herbicidal rating” value ([12]; Rate 0.1250 kg/ha) was 5.0 and the “ECHCG preemergence herbicidal rating” value ([12]; Rate 0.2500 kg/ha) was 9.0. The “SETVI preemergence herbicidal rating” value ([13]; Rate 0.0620 kg/ha) was 7.5, the “SETVI preemergence herbicidal rating” value ([13]; Rate 0.1250 kg/ha) was 9.0 and the “SETVI preemergence herbicidal rating” value ([13]; Rate 0.2500 kg/ha) was 9.0. For the same molecule, the “ZEAMX preemergence herbicidal rating” value ([14]; Rate 0.0620 kg/ha) was 4.0, the “ZEAMX preemergence herbicidal rating” value ([14]; Rate 0.1250 kg/ha) was 6.5 and the “ZEAMX preemergence herbicidal rating” value ([14]; Rate 0.2500 kg/ha) was 7.0. For the same molecule, the “herbicidal rating, CYPSE” value ([15]; rate 0.0320 kg/ha) was 0.0, the “herbicidal rating, CYPSE” value ([15]; rate 0.1250 kg/ha) was 0.0 and the “herbicidal rating, MOOVA” value ([16]; rate 0.0320 kg/ha) was 9.0. For the same molecule, the “herbicidal rating, MOOVA” value ([16]; rate 0.1250 kg/ha) was 9.0, the “herbicidal rating, ORYSAT (rice tolerance)” value (shortened to “herbicidal rating, ORYSAT”) ([17]; rate 0.0320 kg/ha) was 0.0 and the “herbicidal rating, ORYSAT” value ([17]; rate 0.1250 kg/ha) was 4.0.
In the case of `Cn1c(C(F)(F)F)cc(=O)n(-c2ccc3snc(-c4ncccn4)c3c2)c1=O` [Compound 12, 1-methyl-3-[3-(2-pyrimidinyl)-1,2-benzisothiazol-5-yl]-6-(trifluoromethyl)uracil], the “Postemergence herbicidal rating, ABUTH” value ([1]; rate 0.0620 kg/ha) is reported as 9.0, the “Postemergence herbicidal rating, GALAP” value ([2]; rate 0.0620 kg/ha) is reported as 9.0 and the “Postemergence herbicidal rating, IPOHE” value ([3]; rate 0.0620 kg/ha) is reported as 9.0. For the same molecule, the “Postemergence herbicidal rating, SETVI” value ([4]; rate 0.0620 kg/ha) was 9.0, the “Postemergence herbicidal rating, GLXMAW” value ([5]; rate 0.0620 kg/ha) was 8.5 and the “Postemergence herbicidal rating, TRZAWR” value ([6]; rate 0.0620 kg/ha) was 6.0. For the same molecule, the “ABUTH preemergence herbicidal rating” value ([7]; Rate 0.2500 kg/ha) was 9.0, the “AMBEL preemergence herbicidal rating” value ([8]; Rate 0.2500 kg/ha) was 9.0 and the “CASOB preemergence herbicidal rating” value ([9]; Rate 0.2500 kg/ha) was 8.5. For the same molecule, the “CHEAL preemergence herbicidal rating” value ([10]; Rate 0.2500 kg/ha) was 9.0, the “GALAP preemergence herbicidal rating” value ([11]; Rate 0.2500 kg/ha) was 9.0 and the “ECHCG preemergence herbicidal rating” value ([12]; Rate 0.2500 kg/ha) was 9.0. For the same molecule, the “SETVI preemergence herbicidal rating” value ([13]; Rate 0.2500 kg/ha) was 9.0, the “ZEAMX preemergence herbicidal rating” value ([14]; Rate 0.2500 kg/ha) was 8.5 and the “herbicidal rating, CYPSE” value ([15]; rate 0.1250 kg/ha) was 7.0. For the same molecule, the “herbicidal rating, MOOVA” value ([16]; rate 0.1250 kg/ha) was 9.0 and the “herbicidal rating, ORYSAT” value ([17]; rate 0.1250 kg/ha) was 7.0.
